The record followed here is ChEMBL document CHEMBL1201862, “PubChem BioAssay data set” (2004).

Test systems include SK-MEL-28; BT-549; IGROV-1; UACC-257; MDA-MB-435; COLO 205; T47D; A549; LOX IMVI; ACHN; UO-31; HCT-15; K562; MDA-MB-231; NCI-H226; SF-268; NCI-H460; M14; HOP-62; Malme-3M.
Holding throughout (test): NCI anticancer screen, dose series, 48 h

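1) Cells in 96-well plates. 2) Compound, 48 h, 5 concentrations. 3) Linear interpolation between surrounding doses. 4) Unreached endpoint = highest concentration. The concentration for 50% growth inhibition is given as GI50.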 The source made the active and inactive calls. Rule as the data show it: active = GI50 up to about 1.1 µM and inactive = higher. Non-standard residues stand in square brackets, D forms with d. Residues, ends and D or L forms follow the SMILES beside them. Ava = NCCCCC(=O)O; Mpa = O=C(O)CCS A value given as a limit tells only on which side of the number the result lay.

Turning to `COc1cc(O)c(/C=N/N=C(\N)NO)c(OC)c1`, the GI50 in the assay with SK-MEL-28, with BT-549, in the assay on IGROV-1, in the assay on UACC-257, in the assay with MDA-MB-435 and in the assay on COLO 205 was > 10 µM (inactive) in each case. Moreover, the GI50 in the assay on T47D is > 10 µM (inactive); with A549, > 10 µM (inactive); with LOX IMVI, 7.6 µM (inactive); in the assay with ACHN, 9.14 µM (inactive); with UO-31, > 10 µM (inactive); in the assay on HCT-15, 5.04 µM. The GI50 with K562 was > 10 µM (inactive); in the assay with MDA-MB-231, > 10 µM (inactive); with NCI-H226, 5.11 µM (inactive); with SF-268, > 10 µM (inactive); in the assay with NCI-H460, 4.08 µM (inactive); with M14 it was > 10 µM (inactive). Besides, the figures for the GI50 in the assay on HOP-62 and in the assay on Malme-3M were 9.93 µM (inactive) and > 10 µM (inactive), respectively.

As to `CC(C)=CCC/C(C)=C/COc1c2ccoc2cc2oc(=O)ccc12` [BERGAMOTTIN], the GI50 with SK-MEL-28 is 59.2 µM (inactive); with BT-549, 44.3 µM (inactive); in the assay with IGROV-1, 39.5 µM (inactive); in the assay on UACC-257, 24.7 µM (inactive); with MDA-MB-435 it was 34.6 µM (inactive); in the assay on COLO 205, 17.5 µM (inactive). Further, the GI50 is 19.3 µM (inactive) with T47D; 24.9 µM (inactive) in the assay on A549; 21 µM (inactive) with LOX IMVI; 22.8 µM (inactive) in the assay on ACHN; 21.5 µM (inactive) with UO-31; 30.4 µM in the assay on HCT-15. Also, the GI50 in the assay on K562 is 22.4 µM (inactive); in the assay with MDA-MB-231, 24.4 µM (inactive); with NCI-H226 it was 30.1 µM (inactive); in the assay with SF-268, 54.1 µM (inactive); with NCI-H460, 29.9 µM (inactive); with M14, 27.7 µM (inactive). Besides, the GI50 in the assay on HOP-62 is 43.4 µM (inactive); with Malme-3M, 33.5 µM (inactive).

As to `CC(NC(=O)CCS)C(=O)NC(C)C(=O)NC(Cc1c[nH]c2ccccc12)C(=O)NC(Cc1c[nH]cn1)C(=O)NC(CO)C(=O)NC(Cc1c[nH]c2ccccc12)C(=O)NCCCCC(=O)NC(C)C(=O)NC(CCC(N)=O)C(=O)NC(CCCCN)C(=O)NC(C)C(=O)NC(CCCNC(=N)N)C(=O)NC(CCCCN)C(N)=O` (stereo not given) ([Mpa]AAWHSW[Ava]AQKARK-NH2; configuration not given here), the GI50 was 34.7 µM (inactive) with SK-MEL-28; > 100 µM (inactive) in the assay on BT-549; > 100 µM (inactive) with IGROV-1; 24.2 µM (inactive) in the assay with UACC-257; 45.9 µM (inactive) in the assay with MDA-MB-435; 43.5 µM (inactive) in the assay on COLO 205. Also, the GI50 with T47D was 23.9 µM (inactive); with A549, > 100 µM (inactive); in the assay with LOX IMVI it was > 100 µM (inactive); with ACHN, > 100 µM (inactive); with UO-31, > 100 µM (inactive); in the assay with HCT-15 it was over 100 µM. Also, the GI50 in the assay with K562 was 26.9 µM (inactive); with MDA-MB-231, > 100 µM (inactive); in the assay with NCI-H226 it was > 100 µM (inactive); in the assay with SF-268, 29.2 µM (inactive); in the assay with NCI-H460, 37.2 µM (inactive); in the assay with M14, > 100 µM (inactive). The GI50 is > 100 µM (inactive) in the assay on HOP-62 and 19 µM (inactive) in the assay with Malme-3M.

In the case of `O=C1c2cc(Cl)ccc2-n2cnnc2C2CSCN12` (stereo not given), the GI50 with SK-MEL-28, with BT-549, in the assay with IGROV-1, with UACC-257, in the assay with MDA-MB-435 and with COLO 205 was > 100 µM (inactive) in each case. The GI50 is > 100 µM (inactive) in the assay with T47D; > 100 µM (inactive) in the assay with A549; > 100 µM (inactive) in the assay on LOX IMVI; > 100 µM (inactive) with ACHN; > 100 µM (inactive) in the assay on UO-31; over 100 µM in the assay on HCT-15. The GI50 in the assay with K562, in the assay with MDA-MB-231, in the assay with NCI-H226, in the assay on SF-268, in the assay with NCI-H460 and with M14 was > 100 µM (inactive) in each case. In addition, the GI50 with HOP-62 and in the assay on Malme-3M was > 100 µM (inactive) each time.

For `CN(N)/N=N/c1[nH]cnc1C(N)=O`, the GI50 was > 100 µM (inactive) with SK-MEL-28; 42.2 µM (inactive) with BT-549; 9.93 µM (inactive) in the assay with IGROV-1; 54.2 µM (inactive) in the assay with UACC-257; 25.2 µM (inactive) with MDA-MB-435; 17.5 µM (inactive) in the assay on COLO 205. Also, the GI50 is > 34.5 µM (inactive) in the assay with T47D; > 100 µM (inactive) in the assay with A549; 1.65 µM (inactive) with LOX IMVI; 22.3 µM (inactive) with ACHN; 4 µM (inactive) in the assay on UO-31; 22.8 µM in the assay on HCT-15. The GI50 in the assay with K562 was 1.92 µM (inactive); in the assay on MDA-MB-231, 3.22 µM (inactive); with NCI-H226 it was 23.4 µM (inactive); in the assay with SF-268, 5.52 µM (inactive); in the assay with NCI-H460, 13.2 µM (inactive); in the assay on M14, 3.01 µM (inactive). Moreover, the results for the GI50 with HOP-62 and in the assay on Malme-3M were 48.9 µM (inactive) and 4.55 µM (inactive), respectively.

As for `COc1ccc(N2C(=O)/C(=C/c3ccc(N(CCC#N)CCC#N)cc3C)N=C2c2cc([N+](=O)[O-])ccc2Cl)cc1`, the GI50 is 11 µM (inactive) with SK-MEL-28; 53.2 µM (inactive) with BT-549; 19.7 µM (inactive) in the assay with IGROV-1; 46.3 µM (inactive) in the assay on UACC-257; 1.96 µM (inactive) with MDA-MB-435; 4.34 µM (inactive) in the assay on COLO 205. The GI50 in the assay with T47D is > 89.9 µM (inactive); in the assay with A549 it was 4.89 µM (inactive); in the assay on LOX IMVI, 6.43 µM (inactive); in the assay on ACHN it was 22.6 µM (inactive); with UO-31, 5.19 µM (inactive); in the assay on HCT-15 it was 3.84 µM. Further, the GI50 is 2.62 µM (inactive) in the assay on K562; 12.6 µM (inactive) with MDA-MB-231; 17 µM (inactive) in the assay with NCI-H226; 11 µM (inactive) in the assay with SF-268; 4.5 µM (inactive) with NCI-H460; 4.67 µM (inactive) in the assay with M14. Further, the GI50 was 5.46 µM (inactive) in the assay on HOP-62 and 27 µM (inactive) in the assay on Malme-3M.

In the case of `c1ccc(-c2cs[s+]c2)cc1`, the GI50 in the assay with SK-MEL-28, in the assay with BT-549, in the assay on IGROV-1, in the assay on UACC-257, with MDA-MB-435 and in the assay on COLO 205 was > 100 µM (inactive) each time. In addition, the GI50 in the assay with T47D was > 100 µM (inactive); in the assay on A549, > 100 µM (inactive); in the assay with LOX IMVI, > 100 µM (inactive); with ACHN, > 100 µM (inactive); in the assay with UO-31, > 100 µM (inactive); in the assay on HCT-15, 40.8 µM. Moreover, the GI50 in the assay on K562 is 34.2 µM (inactive); in the assay with MDA-MB-231, > 100 µM (inactive); in the assay on NCI-H226, > 100 µM (inactive); in the assay with SF-268, > 100 µM (inactive); in the assay with NCI-H460, 31.8 µM (inactive); in the assay with M14 it was > 100 µM (inactive). The GI50 with HOP-62 and in the assay on Malme-3M was > 100 µM (inactive) throughout.
